“Also recorded” adds a separate entry of the source. Read-outs that look alike come from different tables or passages of the source.
Tests used:
[1] = tested on: Spontaneously Hypertensive rat (SHR) pups; conditions: from literature (Fox et al. 2002, 2005; Decker et al. 2008), cited from earlier work
[2] = tested on: Spontaneously Hypertensive rat (SHR) pups; test: 5-trial inhibitory avoidance in SHR rat pups; format: in vivo; conditions: for Level of Efficacy in SHR 5-trial Inhibitory Avoidance Model: applicant's Examples 1 and 2
Method: Methods: In this behavioral paradigm, hypothesized to test aspects of both attention and impulsivity, vehicle-treated Spontaneously Hypertensive rat (SHR) pups show an impaired ability to withhold a natural response to transfer from the light into a preferred dark chamber that is paired with a mild footshock. In this study, SHR pups at postnatal day 22-23 were dosed with either vehicle or atomoxetine (0.001, 0.01, 0.1, 1.0 and 6.0 mg/kg, s.c.) 30 min prior to being tested. They were then placed into the brightly illuminated compartment of a two compartment chamber (Hamilton Kinder, San Diego, Calif.) with a retractable door between the light and dark compartments opened. After animals transferred through the open door to the dark compartment, the door closed automatically and a 0.1 mA scrambled current was applied to a 31 bar stainless steel grid floor for one second. At this point, the pup was removed and returned to its home cage and littermates for a one minute inter trial interval, and the transfer latency was noted. The same pup was returned to the bright compartment, and the process repeated for five trials. Latency to enter the dark compartment was used to evaluate learning.
Methods: In this behavioral paradigm, hypothesized to test aspects of both attention and impulsivity, vehicle-treated SHR rat pups show an impaired ability to withhold a natural response to transfer from the light into a preferred dark chamber that is paired with a mild footshock. In this study, SHR pups at postnatal day 21-25 were dosed with either vehicle or the alpha7 agonist, compound 1,2-methyl-5-[6-phenylpyridazin-3-yl]octahydropyrrolo[3,4-c]pyrrole, (0.01, 0.1, and 1.0 umol/kg, s.c.) 30 min prior to being tested. They were then placed into the brightly illuminated compartment of a two compartment chamber (Hamilton Kinder, San Diego, Calif.) with a retractable door between the light and dark compartments opened. After animals transferred through the open door to the dark compartment, the door closed automatically and a 0.1 mA scrambled current was applied to a 31 bar stainless steel grid floor for one second. At this point, the pup was removed and returned to its home cage and littermates for a one minute inter trial interval, and the transfer latency was noted. The same pup was returned to the bright compartment, and the process repeated for five trials. Latency to enter the dark compartment was used to evaluate learning. Methods for evaluating 2-methyl-5-[6-phenylpyridazin-3-yl]octahydropyrrolo[3,4-c]pyrrole also are described in Tietje, Karin R., et al., Preclinical Characterization of A-582941: A Novel α7 Neuronal Nicotinic Receptor Agonist with Broad Spectrum Cognition-Enhancing Properties, CNS Neuroscience & Therapeutics 14 (2008) 65-82 (2008).
The 5-trial inhibitory avoidance assay in spontaneously hypertensive (SHR) rat pups has been proposed as a model with predictive validity for compounds showing efficacy in attention disorders such as ADHD.

[3] = tested on: rats; conditions: rats performing an operant visual signal detection task; Rezvani et al. 2008; cited from earlier work

Cc1ncccc1OC[C@@H]1CCCN1 [ABT-089]
Level of Efficacy in SHR 5-trial Inhibitory Avoidance Model [1]: full efficacy and Full

C[C@@H]1CCCN1CCc1cc2cc(-c3ccc(C#N)cc3)ccc2o1 [ABT-239]
Level of Efficacy in SHR 5-trial Inhibitory Avoidance Model [1]: full efficacy and Full

Cc1cc([C@@H]2CCCN2C)on1 [ABT-418]
Level of Efficacy in SHR 5-trial Inhibitory Avoidance Model [1]: full efficacy and Full

CNCC[C@@H](Oc1ccccc1C)c1ccccc1 [Atomoxetine, atomoxetine]
transfer latency compared to vehicle treated animals ([2]; SHR pups postnatal day 22-23, 0.001, 0.01, 0.1, 1.0 and 6.0 mg/kg s.c., 30 min prior to testing, FIG. 1): did not alter transfer latency | Level of Efficacy in SHR 5-trial Inhibitory Avoidance Model [2]: None | Level of Efficacy in SHR 5-trial Inhibitory Avoidance Model ([2]; listed as atomoxetine): did not show efficacy; also recorded: not efficacious

CN1CC2CN(c3ccc(-c4ccccc4)nn3)CC2C1 (stereo not drawn) [Compound 1, 2-methyl-5-[6-phenylpyridazin-3-yl]octahydropyrrolo[3,4-c]pyrrole]
effect on transfer latency ([2]; SHR pups postnatal day 21-25, 0.01, 0.1 and 1.0 umol/kg s.c., 30 min prior to testing, Mann Whitney p<0.05, FIG. 2): significant, dose dependent effect | transfer latency ([2]; SHR pups postnatal day 21-25, dose of 1 μmol/kg s.c., FIG. 2): significantly increasing transfer latency | Level of Efficacy in SHR 5-trial Inhibitory Avoidance Model [2]: full efficacy and Full

COC(=O)C(c1ccccc1)C1CCCCN1 (stereo not drawn) [Methylphenidate, methylphenidate]
Level of Efficacy in SHR 5-trial Inhibitory Avoidance Model [1]: Full | Level of Efficacy in SHR 5-trial Inhibitory Avoidance Model ([1]; listed as methylphenidate): fully efficacious

Cl.O=C(N[C@@H]1CN2CCC1CC2)c1n[nH]c2ccccc12 [R3487/MEM3454]
visual sustained attention [3]: improve visual sustained attention
